# Counter-ions that a name gives are not always drawn.
# Experiments:
# [1] = test system: S. epidermidis RP62A; test: Biofilm test on polystyrene surfaces (crystal violet); type: cell-based, Staphylococcus epidermidis; conditions: drug concentration of 0.63 μM
# Protocol: Determination of the Formation of Biofilms of Staphylococci on Polystyrene-Surfaces (Biofilm Test)
# For determining the effect of a test compound on the formation of biofilms of staphylococci, the biofilm-reference strain S. epidermidis RP62A is inoculated in trypticase-soy-broth (TSB) with a common 0.25% (w/v) glucose concentration (standard-TSB), and grown over night at 37° C. in a shaking incubator until the stationary growth phase. On the next day, the cultures are diluted 1:100 with fresh TSB, and 100 μl of this germ suspension are pipetted into the wells of a 96-well-polystyrol-tissue culture plate with flat bottom (Greiner, Nürtingen, Germany). In the meantime, also a geometric series of dilutions of the test substance is produced in TSB, and also 100 μl of each of these dilutions are added to the den germ suspensions. The plates were incubated at 37° C. in an incubator for 18 hours at 37° C. On the next day, first the growth of the cultures is checked through determining of the optical density at 550 nm by means of an ELISA-reader (see also at MIC-determination), and documented. Then, the cultures are carefully poured out of the wells, and the plates were washed three times with phosphate-buffered saline solution (PBS), in order to remove non-adherent bacteria. […] After drying, the density of the adherent biofilm is determined with an ELISA-reader at a wavelength of 490 nm.
# [2] = test system: 293 kidney epithelial cells; test: Cytotoxicity by the Alamar-Blue assay; type: cell-based
# Protocol: Determination of the Cytotoxicity by the Alamar-Blue®-Assay with the Example of Substance A
# The cytotoxicity of A was determined by means of an Alamar-Blue®-assay. First, a geometric series of dilutions of A in cellular medium (293 kidney epithelial cells; without phenol red) with 1% DMSO was produced, and in a 96-well-polystyrol-flat bottom-microtiter plate vorgelegt. The cells were trypsinized, and washed once. For the test, a cellular suspension of 10^5 cells/ml was prepared, and 20 μl thereof were pipetted into the wells. The final volume was 200 μl. After 24 h incubation at 37° C. and 5% CO2, 20 μl Alamar Blue (Trinova Biochem, Gieβen, Germany) was added into each well, and the microtiter plate was incubated further. The wells that contained the medium and substance, as well as those that only contained cellular suspension (without substance), served as negative or positive control, respectively. The optical density was measured after 24 h and 48 h with an ELISA-reader at the wavelengths 550 nm and 630 nm. The IC50 value for A was calculated following linear interpolation (W. Huber, J. C. Koella Acta Tropica 1993, 55, 257-261).
# [3] = test system: Escherichia coli 536; test: MIC, micro-bouillon-dilution method; type: cell-based; conditions: Escherichia coli 536, 18 hours at 37° C.
# Source text: (§1) Examination of the Inhibitory Effect Through Determining of the Minimal Inhibitory Concentration (MIC) in the Micro-Bouillon-Dilution Methods
# (§2) In this method, a series of dilutions with decreasing concentrations of drug is produced in 96-well-microtiter plates from a stock solution of the compound. The drug-containing microtiter plate-wells are inoculated with a defined amount of the pathogen to be tested, and cultivated. The concentration of the compound in the well, where no more turbidity of the medium due to a growth of the pathogens could be optically detected is given as the MIC.
# (§3) The test strains were inoculated in Luria-Bertani-medium, and grown over night in a shaking incubator at 37° C. until stationary growth phase. On the following day, the culture was diluted 1:100 with fresh Müller-Hinton-bouillon (MH-Medium) containing 5% NaCl (w/v), and until logarithmic growth phase incubated again at 37° C. inkubiert. The optical density of the bacterial suspension was photometrically measured at 550 nm, and the suspension adjusted at 2×10^5 colony forming units/ml (CFU/ml). In the meantime, a geometric series of dilutions of the test compounds was produced in MH-medium. 100 μl of each dilution were pipetted into the corresponding wells of a 96-well-polystyrene-flat bottom-microtiter plate. The plates were inoculated with 100 μl of the pre-prepared inoculum, and cultured in the incubator for 18 hours at 37° C. On the following day, the optical density of the bacterial cultures in the wells was determined with an ELISA-reader at a wavelength of 550 nm, compared to the blank value (=non-inoculated MH-medium). The concentrations of the compound in the last wells, wherein no more growth of the pathogens could be detected, is given as the MIC. A low MIC indicates a high inhibitory activity of a compound, whereas a high concentration indicates a low activity.
# (§4) The MIC of, for example, A was tested for the following germs and strains: • Staphylococcus aureus 325: Biofilm-positive clinical isolate from blood culture, wild type • Staphylococcus aureus NCTC 8325: Biofilm-negative reference strain, genome published • Staphylococcus epidermidis RP62A: Biofilm-positive, multi resistant reference strain • Escherichia coli 536: urinary tract isolate, reference strain • Pseudomonas aeruginosa: environmental isolate • Candida albicans 5314: clinical isolate
# [4] = test system: Staphylococcus aureus 325; test: MIC, micro-bouillon-dilution method; type: cell-based; conditions: Staphylococcus aureus 325, 18 hours at 37° C.
# Source text: as §1, §2, §3, §4
# [5] = test system: Candida albicans 5314; test: MIC, micro-bouillon-dilution method; type: cell-based; conditions: Candida albicans 5314, 18 hours at 37° C.
# Source text: as §1, §2, §3, §4
# [6] = test system: Staphylococcus aureus NCTC 8325; test: MIC, micro-bouillon-dilution method; type: cell-based; conditions: Staphylococcus aureus NCTC 8325, 18 hours at 37° C.
# Source text: as §1, §2, §3, §4
# [7] = test system: Pseudomonas aeruginosa; test: MIC, micro-bouillon-dilution method; type: cell-based
# Source text: as §1, §2, §3, §4
# [8] = test system: Staphylococcus epidermidis RP62A; test: MIC, micro-bouillon-dilution method; type: cell-based; conditions: 18 hours at 37° C.
# Source text: as §1, §2, §3, §4
compound,measurement,setting,value
"COc1cc(OC)c2c(C)[n+](-c3ccc(-c4ccc(-[n+]5c(C)cc6cc(OC)cc(OC)c6c5C)cc4)cc3)c(C)cc2c1 [A, N,N′-(1,1′-benzidine)-di-(6,8-dimethoxy-1,3-dimethylisoquinolinium)-salt]",reduction of the formation of biofilms compared to a control without the substance,[1],about 90%
same,IC50,[2],42.4 µM
same,Minimal inhibitory concentrations,[3],20.00 µM
same,Minimal inhibitory concentrations,[4],0.63 µM
same,Minimal inhibitory concentrations,[5],1.25 µM
same,Minimal inhibitory concentrations,[6],5.00 µM
same,Minimal inhibitory concentrations,"[7]; Pseudomonas aeruginosa, 18 hours at 37° C.",>160 µM
same,growth-inhibiting effect,"[7]; pseudomonades, result in words",fully ineffective
same,Minimal inhibitory concentrations,[8],0.63 µM

# Reference: patent US8173673B2, “Biofilm-inhibiting effect and anti-infective activity of N,C-linked aryl isoquinolines and the use thereof” (Julius-Maximilians-Universitaet Wuerzburg, priority 2006, dated 2012)
